In ChEMBL document CHEMBL4028801, “A multifactorial approach to hepatobiliary transporter assessment enables improved therapeutic compound development” (Toxicol Sci, 2013):
Blank lines part the entries; values can stand above or below the compound they belong to.

Tests used:
[1] = biological target: Bile salt export pump (Homo sapiens, UniProt O95342); assay: Inhibition of human BSEP overexpressed in Sf9 cell membrane vesicles assessed as uptake of [3H]-taurocholate in presence of ATP measured after 15 to 20 mins by membrane vesicle transport assay; type: ADME, cell-based
Chain of Bile salt export pump (O95342 whole entry): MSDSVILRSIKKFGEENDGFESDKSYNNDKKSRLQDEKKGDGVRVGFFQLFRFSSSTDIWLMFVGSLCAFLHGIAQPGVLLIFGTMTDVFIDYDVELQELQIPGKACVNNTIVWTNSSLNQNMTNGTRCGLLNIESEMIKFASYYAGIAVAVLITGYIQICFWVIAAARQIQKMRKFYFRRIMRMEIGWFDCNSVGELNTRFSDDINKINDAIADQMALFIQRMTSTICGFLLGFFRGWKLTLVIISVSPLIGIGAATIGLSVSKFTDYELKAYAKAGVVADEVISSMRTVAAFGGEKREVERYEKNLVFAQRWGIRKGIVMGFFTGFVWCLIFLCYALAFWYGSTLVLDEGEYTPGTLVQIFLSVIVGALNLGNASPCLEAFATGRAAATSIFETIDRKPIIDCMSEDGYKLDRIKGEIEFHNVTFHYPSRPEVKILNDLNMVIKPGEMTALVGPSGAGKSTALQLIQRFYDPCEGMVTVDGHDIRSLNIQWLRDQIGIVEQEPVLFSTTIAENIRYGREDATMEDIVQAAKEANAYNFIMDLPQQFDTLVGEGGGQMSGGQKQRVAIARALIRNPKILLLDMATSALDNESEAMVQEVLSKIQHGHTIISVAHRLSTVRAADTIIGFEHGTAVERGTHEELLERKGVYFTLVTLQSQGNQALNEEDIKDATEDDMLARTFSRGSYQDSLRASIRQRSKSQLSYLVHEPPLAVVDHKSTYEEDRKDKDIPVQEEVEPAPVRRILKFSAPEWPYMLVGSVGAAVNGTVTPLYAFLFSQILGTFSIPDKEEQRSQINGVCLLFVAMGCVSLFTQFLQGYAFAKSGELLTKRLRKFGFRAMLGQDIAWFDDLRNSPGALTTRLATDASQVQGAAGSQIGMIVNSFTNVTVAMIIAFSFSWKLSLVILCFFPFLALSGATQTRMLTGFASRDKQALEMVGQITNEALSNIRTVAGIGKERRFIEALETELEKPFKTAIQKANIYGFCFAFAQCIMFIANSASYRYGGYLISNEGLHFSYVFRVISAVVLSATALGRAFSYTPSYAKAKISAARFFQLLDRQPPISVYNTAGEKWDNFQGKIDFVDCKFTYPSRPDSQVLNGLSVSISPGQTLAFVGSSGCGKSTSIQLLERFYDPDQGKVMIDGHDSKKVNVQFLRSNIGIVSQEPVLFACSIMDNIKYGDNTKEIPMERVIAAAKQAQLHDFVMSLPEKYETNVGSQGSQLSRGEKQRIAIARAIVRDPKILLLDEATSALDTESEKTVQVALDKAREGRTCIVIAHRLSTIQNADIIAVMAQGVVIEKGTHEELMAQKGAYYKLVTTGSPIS

[2] = biological target: ATP-binding cassette sub-family C member 2 (Homo sapiens, UniProt Q92887); assay: Inhibition of human MRP2 overexpressed in Sf9 cell membrane vesicles assessed as uptake of [3H]-estradiol-17beta-D-glucuronide in presence of ATP and GSH measured after 20 mins by membrane vesicle transport assay
Chain of ATP-binding cassette sub-family C member 2 (Q92887 whole entry): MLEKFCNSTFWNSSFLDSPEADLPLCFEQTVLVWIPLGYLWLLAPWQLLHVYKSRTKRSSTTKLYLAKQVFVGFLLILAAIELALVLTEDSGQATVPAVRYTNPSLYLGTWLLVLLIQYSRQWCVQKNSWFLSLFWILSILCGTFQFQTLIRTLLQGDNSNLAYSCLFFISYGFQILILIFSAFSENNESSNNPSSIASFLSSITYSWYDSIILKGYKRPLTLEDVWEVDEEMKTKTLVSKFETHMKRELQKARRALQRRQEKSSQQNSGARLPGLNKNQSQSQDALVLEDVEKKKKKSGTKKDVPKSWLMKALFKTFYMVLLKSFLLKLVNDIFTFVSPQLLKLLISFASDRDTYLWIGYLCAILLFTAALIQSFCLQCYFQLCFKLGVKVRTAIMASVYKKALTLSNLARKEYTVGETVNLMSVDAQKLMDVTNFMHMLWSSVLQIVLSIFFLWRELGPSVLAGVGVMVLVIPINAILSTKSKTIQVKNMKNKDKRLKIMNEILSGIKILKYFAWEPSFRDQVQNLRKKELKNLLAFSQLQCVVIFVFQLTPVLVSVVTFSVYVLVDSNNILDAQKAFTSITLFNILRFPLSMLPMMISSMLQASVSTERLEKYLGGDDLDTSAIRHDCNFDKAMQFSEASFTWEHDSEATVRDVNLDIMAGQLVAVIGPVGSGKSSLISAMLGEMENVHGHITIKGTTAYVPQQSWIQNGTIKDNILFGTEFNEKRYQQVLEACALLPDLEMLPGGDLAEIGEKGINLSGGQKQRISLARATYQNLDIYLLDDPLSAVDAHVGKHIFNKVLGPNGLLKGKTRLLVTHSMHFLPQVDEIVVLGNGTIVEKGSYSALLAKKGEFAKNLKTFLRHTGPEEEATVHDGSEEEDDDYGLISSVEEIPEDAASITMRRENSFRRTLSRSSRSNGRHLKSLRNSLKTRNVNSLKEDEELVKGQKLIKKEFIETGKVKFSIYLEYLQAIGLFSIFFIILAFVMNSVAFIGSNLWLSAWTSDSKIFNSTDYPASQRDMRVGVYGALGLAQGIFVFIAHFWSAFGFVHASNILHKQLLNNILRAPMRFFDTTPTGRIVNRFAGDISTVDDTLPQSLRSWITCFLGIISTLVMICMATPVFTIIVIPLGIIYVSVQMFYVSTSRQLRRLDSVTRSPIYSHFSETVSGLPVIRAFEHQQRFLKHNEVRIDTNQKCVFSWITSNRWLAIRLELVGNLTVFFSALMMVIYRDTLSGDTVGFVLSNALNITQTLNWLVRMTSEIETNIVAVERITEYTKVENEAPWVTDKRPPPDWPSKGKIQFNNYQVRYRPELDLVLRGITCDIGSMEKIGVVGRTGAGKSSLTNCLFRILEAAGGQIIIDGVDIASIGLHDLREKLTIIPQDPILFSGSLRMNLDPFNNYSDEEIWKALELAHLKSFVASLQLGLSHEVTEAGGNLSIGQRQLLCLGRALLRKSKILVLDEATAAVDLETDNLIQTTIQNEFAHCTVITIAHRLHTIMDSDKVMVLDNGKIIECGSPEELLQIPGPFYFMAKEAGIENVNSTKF

[3] = biological target: ATP-binding cassette sub-family C member 3 (Homo sapiens, UniProt O15438); assay: Inhibition of human MRP3 overexpressed in Sf9 insect cell membrane vesicles assessed as uptake of [3H]-estradiol-17beta-D-glucuronide in presence of ATP and GSH measured after 10 mins by membrane vesicle transport assay; type: ADME, cell-based
Chain of ATP-binding cassette sub-family C member 3 (O15438 whole entry): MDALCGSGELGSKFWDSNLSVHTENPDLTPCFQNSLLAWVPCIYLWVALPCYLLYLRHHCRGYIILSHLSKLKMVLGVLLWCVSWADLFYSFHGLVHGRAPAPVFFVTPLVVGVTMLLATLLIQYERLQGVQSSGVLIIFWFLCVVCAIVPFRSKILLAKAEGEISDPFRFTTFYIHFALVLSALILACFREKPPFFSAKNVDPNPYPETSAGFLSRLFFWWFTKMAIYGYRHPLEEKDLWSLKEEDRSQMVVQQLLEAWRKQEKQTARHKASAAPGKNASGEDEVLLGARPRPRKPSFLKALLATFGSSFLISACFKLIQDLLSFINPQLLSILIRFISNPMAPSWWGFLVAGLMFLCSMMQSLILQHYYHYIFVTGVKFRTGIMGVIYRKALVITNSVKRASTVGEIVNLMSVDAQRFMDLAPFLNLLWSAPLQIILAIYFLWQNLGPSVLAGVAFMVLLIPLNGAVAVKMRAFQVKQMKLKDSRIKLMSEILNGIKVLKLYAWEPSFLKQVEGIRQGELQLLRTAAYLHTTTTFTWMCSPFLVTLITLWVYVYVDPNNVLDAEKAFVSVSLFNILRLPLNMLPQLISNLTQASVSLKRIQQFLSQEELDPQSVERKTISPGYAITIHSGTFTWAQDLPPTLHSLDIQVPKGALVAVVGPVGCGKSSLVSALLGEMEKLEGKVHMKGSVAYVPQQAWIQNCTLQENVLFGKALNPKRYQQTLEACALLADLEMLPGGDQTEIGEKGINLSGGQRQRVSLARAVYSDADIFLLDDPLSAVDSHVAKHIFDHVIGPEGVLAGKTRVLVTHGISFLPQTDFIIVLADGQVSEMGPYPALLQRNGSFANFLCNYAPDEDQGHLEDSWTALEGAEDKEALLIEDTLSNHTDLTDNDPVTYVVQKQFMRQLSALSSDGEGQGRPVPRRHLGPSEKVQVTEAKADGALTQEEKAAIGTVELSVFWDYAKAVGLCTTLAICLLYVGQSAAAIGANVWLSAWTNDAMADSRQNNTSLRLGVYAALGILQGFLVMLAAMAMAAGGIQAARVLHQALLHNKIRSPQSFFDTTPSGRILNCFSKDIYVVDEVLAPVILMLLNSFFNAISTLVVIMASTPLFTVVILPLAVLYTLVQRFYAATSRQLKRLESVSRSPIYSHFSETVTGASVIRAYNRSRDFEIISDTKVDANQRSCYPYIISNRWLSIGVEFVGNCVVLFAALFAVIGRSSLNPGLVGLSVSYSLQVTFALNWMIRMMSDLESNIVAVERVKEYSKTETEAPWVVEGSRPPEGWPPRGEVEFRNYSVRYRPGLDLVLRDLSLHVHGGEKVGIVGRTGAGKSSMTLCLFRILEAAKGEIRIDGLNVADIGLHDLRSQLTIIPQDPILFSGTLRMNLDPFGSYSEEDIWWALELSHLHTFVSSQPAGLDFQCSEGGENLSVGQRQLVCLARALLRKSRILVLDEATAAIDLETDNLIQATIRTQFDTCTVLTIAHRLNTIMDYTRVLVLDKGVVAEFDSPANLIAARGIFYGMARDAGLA

[4] = biological target: T1, ATP-binding cassette sub-family C member 4 (Homo sapiens, UniProt O15439); assay: Inhibition of human MRP4 overexpressed in Sf9 cell membrane vesicles assessed as uptake of [3H]-estradiol-17beta-D-glucuronide in presence of ATP and GSH measured after 20 mins by membrane vesicle transport assay; type: ADME, cell-based
T1 sequence (O15439 whole entry): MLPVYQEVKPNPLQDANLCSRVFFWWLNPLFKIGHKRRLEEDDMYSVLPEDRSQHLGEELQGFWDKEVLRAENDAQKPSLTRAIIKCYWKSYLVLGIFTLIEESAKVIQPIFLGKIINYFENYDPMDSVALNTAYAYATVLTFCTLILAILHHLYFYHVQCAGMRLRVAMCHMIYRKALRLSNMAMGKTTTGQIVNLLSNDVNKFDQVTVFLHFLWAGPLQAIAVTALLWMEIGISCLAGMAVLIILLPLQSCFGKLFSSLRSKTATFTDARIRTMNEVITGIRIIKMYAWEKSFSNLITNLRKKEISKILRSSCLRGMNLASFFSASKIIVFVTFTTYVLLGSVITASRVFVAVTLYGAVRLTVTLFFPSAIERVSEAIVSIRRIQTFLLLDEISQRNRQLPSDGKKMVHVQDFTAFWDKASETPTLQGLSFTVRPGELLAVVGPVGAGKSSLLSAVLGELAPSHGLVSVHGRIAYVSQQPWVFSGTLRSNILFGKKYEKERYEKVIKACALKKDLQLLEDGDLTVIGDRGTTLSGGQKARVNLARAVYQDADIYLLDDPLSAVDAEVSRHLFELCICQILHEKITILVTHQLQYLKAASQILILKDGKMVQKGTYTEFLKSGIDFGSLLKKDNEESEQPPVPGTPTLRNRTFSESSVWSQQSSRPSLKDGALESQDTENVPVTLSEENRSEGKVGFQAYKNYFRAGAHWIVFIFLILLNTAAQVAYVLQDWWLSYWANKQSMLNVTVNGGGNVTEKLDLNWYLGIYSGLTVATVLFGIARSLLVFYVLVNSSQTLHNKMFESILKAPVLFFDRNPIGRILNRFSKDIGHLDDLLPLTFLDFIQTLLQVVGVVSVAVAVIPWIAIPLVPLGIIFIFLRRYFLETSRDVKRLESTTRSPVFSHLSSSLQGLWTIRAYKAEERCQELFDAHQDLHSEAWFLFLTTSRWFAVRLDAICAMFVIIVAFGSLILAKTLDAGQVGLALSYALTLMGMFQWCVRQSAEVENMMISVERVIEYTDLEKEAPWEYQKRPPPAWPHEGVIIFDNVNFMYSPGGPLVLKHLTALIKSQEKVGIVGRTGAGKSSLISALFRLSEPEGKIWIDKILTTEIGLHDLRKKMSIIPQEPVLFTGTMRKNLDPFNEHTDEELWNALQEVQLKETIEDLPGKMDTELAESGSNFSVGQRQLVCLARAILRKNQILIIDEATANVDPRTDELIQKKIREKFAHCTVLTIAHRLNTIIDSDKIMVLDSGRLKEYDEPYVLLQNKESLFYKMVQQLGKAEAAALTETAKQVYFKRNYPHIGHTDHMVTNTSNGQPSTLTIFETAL

[5] = AUC in human at 20 to 100 mg, po QD or 60 mg, po BID after 12 hrs; type: ADME, organism-based; details: in vivo
[6] = Drug concentration at steady state in human at 20 to 100 mg, po QD or 60 mg, po BID after 12 hrs; type: ADME, organism-based; details: in vivo, read-out: Css
[7] = Ratio of drug concentration at steady state in human at 20 to 100 mg, po QD or 60 mg, po BID after 12 hrs to IC50 for human BSEP overexpressed in Sf9 insect cells; type: ADME, organism-based; details: in vivo
[8] = Drug concentration at steady state in human at 200 to 1200 mg, po QD after 24 hrs; details: in vivo
[9] = clinical; details: human, in vivo, po
[10] = AUC in human at 40 to 80 mg, po TID after 8 hrs; type: ADME, organism-based; details: in vivo
[11] = Drug concentration at steady state in human at 40 to 80 mg, po TID after 8 hrs; type: ADME, organism-based; details: in vivo, read-out: Css
[12] = Ratio of drug concentration at steady state in human at 40 to 80 mg, po TID after 8 hrs to IC50 for human BSEP overexpressed in Sf9 insect cells; type: ADME, organism-based; details: in vivo
[13] = Ratio of drug concentration at steady state in human at 40 to 80 mg, po TID after 8 hrs to IC50 for human MRP4 overexpressed in Sf9 insect cells; type: ADME, organism-based; details: in vivo
[14] = AUC in human at 10 to 20 mg, po QID after 6 hrs; type: ADME, organism-based; details: in vivo
[15] = Drug concentration at steady state in human at 10 to 20 mg, po QID after 6 hrs; type: ADME, organism-based; details: in vivo, read-out: Css
[16] = Ratio of drug concentration at steady state in human at 10 to 20 mg, po QID after 6 hrs to IC50 for human BSEP overexpressed in Sf9 insect cells; type: ADME, organism-based; details: in vivo
[17] = AUC in human at 10 to 20 mg, po BID after 12 hrs; type: ADME, organism-based; details: in vivo
[18] = Drug concentration at steady state in human at 10 to 20 mg, po BID after 12 hrs; type: ADME, organism-based; details: in vivo, read-out: Css
[19] = Ratio of drug concentration at steady state in human at 10 to 20 mg, po BID after 12 hrs to IC50 for human BSEP overexpressed in Sf9 insect cells; type: ADME, organism-based; details: in vivo
[20] = Ratio of drug concentration at steady state in human at 10 to 20 mg, po BID after 12 hrs to IC50 for human MRP2 overexpressed in Sf9 insect cells; type: ADME, organism-based; details: in vivo
[21] = Ratio of drug concentration at steady state in human at 10 to 20 mg, po BID after 12 hrs to IC50 for human MRP4 overexpressed in Sf9 insect cells; type: ADME, organism-based; details: in vivo
[22] = AUC in human at 15 to 120 mg, po QD after 24 hrs; type: ADME, organism-based; details: in vivo
[23] = Drug concentration at steady state in human at 15 to 120 mg, po QD after 24 hrs; type: ADME, organism-based; details: in vivo, read-out: Css
[24] = Ratio of drug concentration at steady state in human at 15 to 120 mg, po QD after 24 hrs to IC50 for human BSEP overexpressed in Sf9 insect cells; type: ADME, organism-based; details: in vivo
[25] = Ratio of drug concentration at steady state in human at 15 to 120 mg, po QD after 24 hrs to IC50 for human MRP3 overexpressed in Sf9 insect cells; type: ADME, organism-based; details: in vivo
[26] = Ratio of drug concentration at steady state in human at 15 to 120 mg, po QD after 24 hrs to IC50 for human MRP4 overexpressed in Sf9 insect cells; type: ADME, organism-based; details: in vivo

IC50 [2]: 58.8 µM
IC50 [3]: > 133 µM
IC50 [4]: 12.1 µM
AUC at 12 h [17]: 3.6 µM·h
concentration at 12 h [18]: 300 nM
Ratio [20]: 0.005
Ratio [21]: 0.025
SMILES: COc1cc(C(=O)NS(=O)(=O)c2ccccc2C)ccc1Cc1cn(C)c2ccc(NC(=O)OC3CCCC3)cc12 [ZAFIRLUKAST]
IC50 [1]: 11.1 µM
Ratio [19]: 0.027

IC50 [3]: 23.9 µM
IC50 [4]: 6.3 µM
AUC at 24 h [22]: 9.67 µM·h
concentration at 24 h [23]: 403 nM
Ratio [25]: 0.017
Ratio [26]: 0.064
SMILES: COc1ccc2c(c1)C(=O)N(CCc1ccc(S(=O)(=O)NC(=O)NC3CCCCC3)cc1)C(=O)C2(C)C [GLIQUIDONE]
IC50 [1]: 11.6 µM
Ratio [24]: 0.035

More lines, now with the values behind:

SMILES: COCCCOc1ccnc(C[S+]([O-])c2nc3ccccc3[n-]2)c1C.[Na+] (stereo not drawn) [RABEPRAZOLE SODIUM]
IC50 [1]: 33.9 µM
IC50 [2]: > 133 µM
IC50 [3]: > 133 µM
IC50 [4]: > 133 µM
AUC at 12 h [5]: 14.5 µM·h
concentration at 12 h [6]: 1210 nM
Ratio [7]: 0.036

SMILES: CCCCc1oc2ccccc2c1C(=O)c1cc(I)c(OCCN(CC)CC)c(I)c1 [AMIODARONE]
IC50 [2]: > 133 µM
IC50 [3]: > 133 µM
IC50 [4]: > 133 µM
concentration at 24 h [8]: 1360 nM
AUC at 24 h [9]: 32.7 µM·h

SMILES: CCOc1ccc(/C=C2\NCCc3cc(OCC)c(OCC)cc32)cc1OCC [DROTAVERINE]
IC50 [2]: > 133 µM
IC50 [3]: > 133 µM
IC50 [4]: 24.5 µM
AUC at 8 h [10]: 8.18 µM·h
concentration at 8 h [11]: 1020 nM
Ratio [12]: 0.028
Ratio [13]: 0.042

SMILES: COc1cc(N)c(Cl)cc1C(=O)NC1CCN(CCCOc2ccc(F)cc2)CC1OC.O (stereo not drawn) [CISAPRIDE MONOHYDRATE]
IC50 [1]: 22 µM
IC50 [2]: > 133 µM
IC50 [3]: > 133 µM
IC50 [4]: > 133 µM
AUC at 6 h [14]: 4.78 µM·h
concentration at 6 h [15]: 797 nM
Ratio [16]: 0.036
